Experiments:
RAW264.7 [1] = assay: Antiinflammatory activity against mouse RAW264.7 cells assessed as inhibition of LPS-induced NO production preincubated for 3 hrs followed by LPS-stimulation and measured after 24 hrs by Griess reagent based assay; assay type: functional, cell-based
RAW264.7 [2] = assay: Cytotoxicity against mouse RAW264.7 cells assessed as reduction cell viability at 20 uM by MTT assay; assay type: cell-based; conditions: raw264.7, 20 µM
RAW264.7 [3] = assay: Antiinflammatory activity against mouse RAW264.7 cells assessed as inhibition of LPS-induced PGE2 production preincubated for 3 hrs followed by LPS-stimulation and measured after 24 hrs by ELISA; assay type: functional, cell-based
RAW264.7 [4] = assay: Antiinflammatory activity against mouse RAW264.7 cells assessed as LPS-induced INOS mRNA expression at 2.5 uM preincubated for 3 hrs followed by LPS-stimulation and measured after 24 hrs by RT-PCR analysis (reference value: 8.2); assay type: functional
RAW264.7 [5] = assay: Antiinflammatory activity against mouse RAW264.7 cells assessed as LPS-induced INOS mRNA expression at 5 uM preincubated for 3 hrs followed by LPS-stimulation and measured after 24 hrs by RT-PCR analysis (reference value: 8.2); assay type: functional
RAW264.7 [6] = assay: Antiinflammatory activity against mouse RAW264.7 cells assessed as LPS-induced INOS mRNA expression at 10 uM preincubated for 3 hrs followed by LPS-stimulation and measured after 24 hrs by RT-PCR analysis (reference value: 8.2); assay type: functional
RAW264.7 [7] = assay: Antiinflammatory activity against mouse RAW264.7 cells assessed as LPS-induced COX-2 mRNA expression at 2.5 uM preincubated for 3 hrs followed by LPS-stimulation and measured after 24 hrs by RT-PCR analysis (reference value: 14.39); assay type: functional
RAW264.7 [8] = assay: Antiinflammatory activity against mouse RAW264.7 cells assessed as LPS-induced COX-2 mRNA expression at 5 uM preincubated for 3 hrs followed by LPS-stimulation and measured after 24 hrs by RT-PCR analysis (reference value: 14.39); assay type: functional
RAW264.7 [9] = assay: Antiinflammatory activity against mouse RAW264.7 cells assessed as LPS-induced COX-2 mRNA expression at 10 uM preincubated for 3 hrs followed by LPS-stimulation and measured after 24 hrs by RT-PCR analysis (reference value: 14.39); assay type: functional
RAW264.7 [10] = assay: Antiinflammatory activity against mouse RAW264.7 cells assessed as reduction in LPS-induced IL-1beta mRNA expression preincubated for 3 hrs followed by LPS-stimulation and measured after 12 hrs by RT-PCR analysis; assay type: functional, cell-based
RAW264.7 [11] = assay: Antiinflammatory activity against mouse RAW264.7 cells assessed as reduction in LPS-induced TNF-alpha mRNA expression preincubated for 3 hrs followed by LPS-stimulation and measured after 12 hrs by RT-PCR analysis; assay type: functional, cell-based
RAW264.7 [12] = assay: Antiinflammatory activity against mouse RAW264.7 cells assessed as reduction in LPS-induced IL6 mRNA expression preincubated for 3 hrs followed by LPS-stimulation and measured after 12 hrs by RT-PCR analysis; assay type: functional, cell-based
RAW264.7 [13] = assay: Antiinflammatory activity against mouse RAW264.7 cells assessed as reduction in LPS-induced IL-12 mRNA expression preincubated for 3 hrs followed by LPS-stimulation and measured after 12 hrs by RT-PCR analysis; assay type: functional, cell-based
RAW264.7 [14] = assay: Trans-suppression of NFkappaB in mouse RAW264.7 cells assessed as LPS-induced IKB-apha degradation at 2.5 uM preincubated for 3 hrs followed by LPS-stimulation and measured after 1 hr by Western blot analysis (reference value: 0.29); assay type: cell-based
RAW264.7 [15] = assay: Trans-suppression of NFkappaB in mouse RAW264.7 cells assessed as LPS-induced IKB-apha degradation at 5 uM preincubated for 3 hrs followed by LPS-stimulation and measured after 1 hr by Western blot analysis (reference value: 0.29); assay type: cell-based
RAW264.7 [16] = assay: Trans-suppression of NFkappaB in mouse RAW264.7 cells assessed as LPS-induced IKB-apha degradation at 10 uM preincubated for 3 hrs followed by LPS-stimulation and measured after 1 hr by Western blot analysis (reference value: 0.29); assay type: cell-based
RAW264.7 [17] = assay: Trans-suppression of NFkappaB in mouse RAW264.7 cells assessed as LPS-induced IKB-apha phosphorylation at 2.5 uM preincubated for 3 hrs followed by LPS-stimulation and measured after 1 hr by Western blot analysis (reference value: 6.04); assay type: cell-based
RAW264.7 [18] = assay: Trans-suppression of NFkappaB in mouse RAW264.7 cells assessed as LPS-induced IKB-apha phosphorylation at 5 uM preincubated for 3 hrs followed by LPS-stimulation and measured after 1 hr by Western blot analysis (reference value: 6.04); assay type: cell-based
RAW264.7 [19] = assay: Trans-suppression of NFkappaB in mouse RAW264.7 cells assessed as LPS-induced IKB-apha phosphorylation at 10 uM preincubated for 3 hrs followed by LPS-stimulation and measured after 1 hr by Western blot analysis (reference value: 6.04); assay type: cell-based
RAW264.7 [20] = assay: Trans-suppression of NFkappaB in mouse RAW264.7 cells assessed as LPS-induced cytosol-p65 level at 2.5 uM preincubated for 3 hrs followed by LPS-stimulation and measured after 1 hr by Western blot analysis (reference value: 0.09); assay type: cell-based
RAW264.7 [21] = assay: Trans-suppression of NFkappaB in mouse RAW264.7 cells assessed as LPS-induced cytosol-p65 level at 5 uM preincubated for 3 hrs followed by LPS-stimulation and measured after 1 hr by Western blot analysis (reference value: 0.09); assay type: cell-based
RAW264.7 [22] = assay: Trans-suppression of NFkappaB in mouse RAW264.7 cells assessed as LPS-induced cytosol-p65 level at 10 uM preincubated for 3 hrs followed by LPS-stimulation and measured after 1 hr by Western blot analysis (reference value: 0.09); assay type: cell-based
RAW264.7 [23] = assay: Trans-suppression of NFkappaB in mouse RAW264.7 cells assessed as LPS-induced cytosol-p50 level at 2.5 uM preincubated for 3 hrs followed by LPS-stimulation and measured after 1 hr by Western blot analysis (reference value: 0.28); assay type: cell-based
RAW264.7 [24] = assay: Trans-suppression of NFkappaB in mouse RAW264.7 cells assessed as LPS-induced cytosol-p50 level at 5 uM preincubated for 3 hrs followed by LPS-stimulation and measured after 1 hr by Western blot analysis (reference value: 0.28); assay type: cell-based
RAW264.7 [25] = assay: Trans-suppression of NFkappaB in mouse RAW264.7 cells assessed as LPS-induced cytosol-p50 level at 10 uM preincubated for 3 hrs followed by LPS-stimulation and measured after 1 hr by Western blot analysis (reference value: 0.28); assay type: cell-based

IC50 (RAW264.7 [1]): 8.6 µM
SMILES: COc1cc(OC)c2c(O)c3c(=O)cc(C)oc3c(-c3c(O)cc4cc(O)c5c(=O)cc(C)oc5c4c3OC)c2c1 (atropisomer aS) [ASPERPYRONE A]
Activity (RAW264.7 [1]): Dose-dependent effect
Activity (RAW264.7 [2]): Non-Toxic
inhibition (RAW264.7 [3]): Dose-dependent effect
fold change (FC) (RAW264.7 [4]): 8.48
fold change (FC) (RAW264.7 [5]): 2.62
fold change (FC) (RAW264.7 [6]): 1.03
fold change (FC) (RAW264.7 [7]): 12.92
fold change (FC) (RAW264.7 [8]): 7.56
fold change (FC) (RAW264.7 [9]): 3.69
Activity (RAW264.7 [10]): Dose-dependent effect
Activity (RAW264.7 [11]): Dose-dependent effect
Activity (RAW264.7 [12]): Dose-dependent effect
Activity (RAW264.7 [13]): Dose-dependent effect
fold change (FC) (RAW264.7 [14]): 0.31
fold change (FC) (RAW264.7 [15]): 0.68
fold change (FC) (RAW264.7 [16]): 0.81
fold change (FC) (RAW264.7 [17]): 2.93
fold change (FC) (RAW264.7 [18]): 3.21
fold change (FC) (RAW264.7 [19]): 2.3
fold change (FC) (RAW264.7 [20]): 0.42
fold change (FC) (RAW264.7 [21]): 0.78
fold change (FC) (RAW264.7 [22]): 1.04
fold change (FC) (RAW264.7 [23]): 0.55
fold change (FC) (RAW264.7 [24]): 0.87
fold change (FC) (RAW264.7 [25]): 1.12

Source: ChEMBL document CHEMBL4610081, “Anti-inflammatory Metabolites from Chaetomium nigricolor” (J Nat Prod, 2020)
